Results: ChEMBL document CHEMBL1140357, “Discovery of hydroxamic acid analogs as dual inhibitors of phosphodiesterase-1 and -5” (Bioorg Med Chem Lett, 2005)

Experiments:
[1] = biological target: cGMP-specific 3',5'-cyclic phosphodiesterase (Homo sapiens, UniProt O76074); experiment: Inhibitory concentration against Phosphodiesterase type 5
Phosphodiesterase 1 = Phosphodiesterase 1 (Homo sapiens, UniProt P54750+Q01064+Q14123); experiment: Inhibitory concentration against Phosphodiesterase type 1; assay type: protein assay
Phosphodiesterase 3 = Phosphodiesterase 3 (Homo sapiens, UniProt Q14432+Q13370); experiment: Inhibitory concentration against Phosphodiesterase type 3; assay type: protein assay
Rattus norvegicus = species on record: Rattus norvegicus; experiment: Effective concentration required for vasodilatory effect in isolated vessel of rat; assay type: functional

| SMILES | IC50 [1] [µM] | IC50 (Phosphodiesterase 1) [µM] | IC50 (Phosphodiesterase 3) [µM] | EC50 (Rattus norvegicus) [µM] |
| --- | --- | --- | --- | --- |
| CCc1cc(C(C)=O)c(O)cc1OCc1cccc(C(=O)N(CCCCCCCCC(N)=O)C(C)CC)n1 (stereo not given) | 3.3 | – | – | – |
| CCc1cc(C(C)=O)c(O)cc1OCc1cccc(C(=O)NC2COC(=O)C2)n1 (stereo not given) | 7.82 | – | – | – |
| CCc1cc(C(C)=O)c(O)cc1OCc1cccc(C(=O)NC(O)CC(=O)OC)n1 (stereo not given) | 6.07 | – | – | – |
| O=C(Cc1csc(NC(=O)c2cccc(C(=O)c3ccccc3)c2)n1)NO | 3.41 | 1.72 | – | – |
| O=C(Cc1csc(NC(=O)COc2ccccc2)n1)NO | 5.62 | > 10 | – | – |
| Cc1cc(C)cc(C(=O)Nc2nc(CC(=O)NO)cs2)c1 | 1.83 | > 10 | – | – |
| CCCCCCC(C(=O)O)c1csc(NC(=O)c2cccc(COc3ccccc3)n2)n1 (stereo not given) | 4.58 | > 10 | – | – |
| O=C(Cc1csc(NC(=O)c2ccccc2F)n1)NO | 7.56 | > 10 | – | – |
| COc1cc(OC)c(OC)c(C(=O)Nc2nc(CC(=O)NO)cs2)c1 | 2.58 | > 10 | – | – |
| CCc1cc(C(C)=O)c(O)cc1OCc1cccc(C(=O)NC(Cc2cnc[nH]2)C(=O)OC)n1 (stereo not given) | 9.07 | – | – | – |
| O=C(Cc1csc(NC(=O)COc2ccc(Cl)cc2)n1)NO | 1.69 | 1.81 | – | – |
| O=C(O)Cc1cccc(NC(=O)c2cccc(COc3ccccc3)n2)c1 | 10 | > 10 | – | – |
| CCC(C(=O)Nc1nc(CC(=O)NO)cs1)c1ccccc1 (stereo not given) | 6.19 | > 10 | – | – |
| COc1ccc(NC(=O)c2cccc(COc3ccccc3)n2)cc1C(=O)NO | 3.5 | > 10 | – | – |
| CCCCCCCCCCCC(=O)Nc1nc(CC(=O)NO)cs1 | 1.8 | > 10 | – | – |
| O=C(Nc1nc(C2(C(=O)NO)CCOCC2)cs1)c1cccc(COc2ccccc2)n1 | 2.49 | 2.93 | – | – |
| CCc1cc(C(C)=O)c(O)cc1OCc1cccc(C(=O)NC(Cc2ccc(O)cc2)C(=O)O)n1 (stereo not given) | 3.68 | – | – | – |
| COc1ccc2c(c1)c(CC(=O)Nc1nc(CC(=O)NO)cs1)c(C)n2C(=O)c1ccc(Cl)cc1 | 1.28 | 2.8 | – | – |
| O=C(O)CCC(C(=O)O)c1csc(NC(=O)c2cccc(COc3ccccc3)n2)n1 (stereo not given) | 10 | > 10 | – | – |
| O=C(Cc1csc(NC(=O)CCC(=O)c2ccccc2)n1)NO | 4.52 | > 10 | – | – |

| SMILES | IC50 [1] [µM] | IC50 (Phosphodiesterase 1) [µM] | IC50 (Phosphodiesterase 3) [µM] | EC50 (Rattus norvegicus) [µM] |
| --- | --- | --- | --- | --- |
| O=C(Nc1nc(C2(C(=O)O)CCOCC2)cs1)c1cccc(COc2ccccc2)n1 | 10 | > 10 | – | – |
| CCc1cc(C(C)=O)c(O)cc1OCc1cccc(C(=O)NC(CO)CC(=O)O)n1 (stereo not given) | 9.46 | – | – | – |
| O=C(Cc1csc(NC(=O)CCCCCc2ccccc2)n1)NO | 1.9 | 4.5 | – | – |
| CCc1cc(C(C)=O)c(O)cc1OCc1cccc(C(=O)NC(C(=O)OC)C(C)O)n1 (stereo not given) | 3.35 | – | – | – |
| CN(C)c1cccc(C(=O)Nc2nc(CC(=O)NO)cs2)c1 | 5.47 | > 10 | – | – |
| CCc1cc(C(C)=O)c(O)cc1OCc1cccc(C(=O)NC(CO)C(=O)OCc2ccccc2)n1 (stereo not given) | 8.62 | – | – | – |
| Cc1c(NC(=O)c2cccc(COc3ccccc3)n2)cccc1C(=O)NO | 2.66 | > 10 | – | – |
| CCc1cc(C(C)=O)c(O)cc1OCc1cccc(C(=O)NC(C(=O)O)C(C)C)n1 (stereo not given) | 1.24 | – | – | – |
| Cc1nc(NC(=O)c2cccc(COc3ccccc3)n2)sc1C(=O)O | 4.99 | 4.48 | – | – |
| CCc1cc(C(C)=O)c(O)cc1OCc1cccc(C(=O)N(CC)CCCCCCCCC(N)=O)n1 | 1.21 | – | – | – |
| CCc1cc(C(C)=O)c(O)cc1OCc1cccc(C(=O)NCC(O)c2ccc(O)cc2)n1 (stereo not given) | 3.19 | – | – | – |
| O=C(NO)c1cccc(NC(=O)c2cccc(COc3ccccc3)n2)n1 | 1.47 | > 10 | – | – |
| O=C(Cc1csc(NC(=O)Nc2cccc3ccccc23)n1)NO | 3.81 | > 10 | – | – |
| CCCCC(C(=O)O)c1csc(NC(=O)c2cccc(COc3ccccc3)n2)n1 (stereo not given) | 6.49 | > 10 | – | – |
| O=C(NO)C(=O)c1csc(NC(=O)c2cccc(COc3ccccc3)n2)n1 | 2.2 | > 10 | – | – |
| O=C(Nc1nc(C2(C(=O)O)CC2)cs1)c1cccc(COc2ccccc2)n1 | 8.58 | > 10 | – | – |
| O=C(O)CCC(CCC(=O)O)(C(=O)O)c1csc(NC(=O)c2cccc(COc3ccccc3)n2)n1 | 9.28 | > 10 | – | – |
| CCCCCCCC(=O)OCC(NC(=O)c1cccc(COc2cc(O)c(C(C)=O)cc2CC)n1)C(=O)O (stereo not given) | 3.28 | – | – | – |
| O=C(Cc1csc(NC(=O)c2ccc(Cl)cc2Cl)n1)NO | 4.25 | > 10 | – | – |
| CCc1cc(C(C)=O)c(O)cc1OCc1cccc(C(=O)NC(CO)(CO)CO)n1 | 8.91 | – | – | – |

| SMILES | IC50 [1] [µM] | IC50 (Phosphodiesterase 1) [µM] | IC50 (Phosphodiesterase 3) [µM] | EC50 (Rattus norvegicus) [µM] |
| --- | --- | --- | --- | --- |
| CCC(=O)OCC(NC(=O)c1cccc(COc2cc(O)c(C(C)=O)cc2CC)n1)C(=O)O (stereo not given) | 6.68 | – | – | – |
| COc1ccc2c(c1)C(CC(=O)Nc1nc(CC(=O)NO)cs1)CC2=O (stereo not given) | 3.16 | > 10 | – | – |
| CCc1cc(C(C)=O)c(O)cc1OCc1cccc(C(=O)NCCCCCC(=O)O)n1 | 7.65 | – | – | – |
| O=C(Cc1csc(NC(=O)c2ccccc2)n1)NO | 3.25 | > 10 | – | – |
| CCc1cc(C(C)=O)c(O)cc1OCc1cccc(C(=O)NC(CC(=O)O)c2ccccc2)n1 (stereo not given) | 1.45 | – | – | – |
| O=C(Cc1csc(NC(=O)c2cnc3ccccc3n2)n1)NO | 1.84 | > 10 | – | – |
| Cc1cccc(C(=O)Nc2nc(CC(=O)NO)cs2)c1Br | 8.43 | 3.87 | – | – |
| O=C(Nc1nc(C(Cc2ccccc2)C(=O)O)cs1)c1cccc(COc2ccccc2)n1 (stereo not given) | 10 | > 10 | – | – |
| CC(C)C(C(=O)NO)c1csc(NC(=O)c2cccc(COc3ccccc3)n2)n1 (stereo not given) | 2.42 | 3.9 | – | – |
| CCc1cc(C(C)=O)c(O)cc1OCc1cccc(C(=O)Nc2ccc(OCC(=O)O)cc2)n1 | 3.1 | – | – | – |
| O=C(O)Cc1cccc(NC(=O)c2cccc(COc3ccccc3)n2)n1 | 9.43 | > 10 | – | – |
| CCc1cc(C(C)=O)c(O)cc1OCc1cccc(C(=O)NC(CO)CC(=O)OC)n1 (stereo not given) | 3.1 | – | – | – |
| CCc1cc(C(C)=O)c(O)cc1OCc1cccc(C(=O)NC(C)C(=O)OC)c1 (stereo not given) | 2.13 | – | – | – |
| O=C(Cc1csc(NC(=O)c2ccccn2)n1)NO | 3.2 | 7.1 | – | – |
| O=C(Cc1csc(NC(=O)Cc2cccc(C(F)(F)F)c2)n1)NO | 2.07 | > 10 | – | – |
| CC(C)CC(C(=O)O)c1csc(NC(=O)c2cccc(COc3ccccc3)n2)n1 (stereo not given) | 6.25 | > 10 | – | – |
| CCc1cc(C(C)=O)c(O)cc1OCc1cccc(C(=O)Nc2nn[nH]n2)n1 | 5.15 | – | – | – |
| COc1ccc2c(c1)OC(=O)CC2CC(=O)Nc1nc(CC(=O)NO)cs1 (stereo not given) | 5.99 | > 10 | – | – |
| CCc1cc(C(C)=O)c(O)cc1OCc1cccc(C(=O)NC(CO)CCC(=O)OC)n1 (stereo not given) | 2.64 | – | – | – |

The next compounds have a lower IC50 [1] than those just listed; values first:

| IC50 [1] [µM] | IC50 (Phosphodiesterase 1) [µM] | IC50 (Phosphodiesterase 3) [µM] | EC50 (Rattus norvegicus) [µM] | SMILES |
| --- | --- | --- | --- | --- |
| 1.1 | 1 | – | – | O=C(Cc1csc(NC(=O)c2cccc3ccccc23)n1)NO |
| 1.03 | – | – | – | CCc1cc(C(C)=O)c(O)cc1OCc1cccc(C(=O)N[C@H](C)C(=O)O)n1 |
| 0.92 | – | – | – | CCc1cc(C(C)=O)c(O)cc1OCc1cccc(C(=O)NCC(=O)O)c1 |
| 0.89 | 0.63 | – | – | O=C(Nc1nc(C2(C(=O)NO)CC2)cs1)c1cccc(COc2ccccc2)n1 |
| 0.87 | – | – | – | C=CCN(CCC(=O)O)C(=O)c1cccc(COc2cc(O)c(C(C)=O)cc2CC)n1 |
| 0.83 | 1.36 | – | – | O=C(Nc1nc(C(Cc2ccccc2)C(=O)NO)cs1)c1cccc(COc2ccccc2)n1 (stereo not given) |
| 0.79 | 0.38 | – | – | O=C(Cc1csc(NC(=O)C2C=CN(c3ccccc3)c3ccccc32)n1)NO (stereo not given) |
| 0.77 | > 10 | – | – | Cc1nc(NC(=O)c2cccc(COc3ccccc3)n2)sc1C(=O)NO |
| 0.68 | – | – | – | CCc1cc(C(C)=O)c(O)cc1OCc1cccc(C(=O)NC(CO)C(=O)O)c1 (stereo not given) |
| 0.65 | – | – | – | CCOC(=O)CC(NC(=O)c1cccc(COc2cc(O)c(C(C)=O)cc2CC)c1)C(=O)OCC (stereo not given) |
| 0.63 | – | – | – | CCc1cc(C(C)=O)c(O)cc1OCc1cccc(C(=O)Nc2nc(CC(=O)O)cs2)c1 |
| 0.62 | 3.94 | – | – | CC(C)CC(C(=O)NO)c1csc(NC(=O)c2cccc(COc3ccccc3)n2)n1 (stereo not given) |
| 0.52 | 0.67 | – | – | CC(C)(C(=O)NO)c1csc(NC(=O)c2cccc(COc3ccccc3)n2)n1 |
| 0.46 | – | – | – | CCc1cc(C(C)=O)c(O)cc1OCc1cccc(C(=O)N[C@@H](C)C(=O)O)n1 |
| 0.43 | 1.72 | – | – | O=C(Cc1csc(NC(=O)c2cccc(SC(F)(F)F)c2)n1)NO |
| 0.35 | – | – | – | CCc1cc(C(C)=O)c(O)cc1OCc1cccc(C(=O)NC(C)C(=O)NO)n1 (stereo not given) |
| 0.32 | 2.67 | – | – | O=C(Cc1csc(NC(=O)c2cnccc2Oc2ccc(Cl)cc2)n1)NO |
| 0.27 | 0.2 | – | – | CCCCC(C(=O)NO)c1csc(NC(=O)c2cccc(COc3ccccc3)n2)n1 (stereo not given) |
| 0.27 | – | – | – | CCc1cc(C(C)=O)c(O)cc1OCc1cccc(C(=O)NCCC(=O)O)n1 |
| 0.23 | 5.7 | – | – | CCCCCCC(C(=O)NO)c1csc(NC(=O)c2cccc(COc3ccccc3)n2)n1 (stereo not given) |
| 0.19 | 0.92 | > 10 | 3.9 | O=C(Cc1csc(NC(=O)c2cccc(COc3ccccc3)n2)n1)NO |
| 0.14 | 8 | – | – | O=C(Cc1csc(NC(=O)c2ccc3ccccc3n2)n1)NO |
| 0.13 | – | – | – | CCc1cc(C(C)=O)c(O)cc1OCc1cccc(C(=O)NC(C)C(=O)O)c1 (stereo not given) |
| 0.04 | 4.52 | – | – | Cc1sc(NC(=O)c2cccc(COc3ccccc3)n2)nc1CC(=O)NO |
| 0.04 | > 10 | – | – | O=C(Cc1cccc(NC(=O)c2cccc(COc3ccccc3)n2)n1)NO |
| 0.026 | 0.087 | 1.3 | 0.9 | CCc1cc(C(C)=O)c(O)cc1OCc1cccc(C(=O)Nc2nc(CC(=O)NO)cs2)n1 |
| 0.013 | 2.41 | – | – | O=C(Cc1cccc(NC(=O)c2cccc(COc3ccccc3)n2)c1)NO |
